Earlier results in patent US20170266090A1, “ANTIMICROBIAL COMPOSITIONS THAT ARE DERMATOLOGICALLY NON-DRYING” (Marvel Technologies USA, LLC, priority 2016, published 2017).

Details: background statement, no source given

Drying time: eight to thirteen
SMILES: CCO [Ethanol]
